Laboratory results: patent publication US8334288B2, “4-phenoxymethylpiperidines as modulators of GPR119 activity” (IRM LLC, priority 2008, dated 2012)

These compounds were tested against T1, human GPR119 (Homo sapiens, UniProt Q8TDV5) (assay: Cyclic AMP assay in stable cell line (HTRF, Flp-In-CHO-hGPR119 cells)). Conditions: increase in intracellular cAMP, 30 minutes at 37° C., 1 mM IBMX.
T1 construct: expressed in transfected cells; host or cells: Flp-In-CHO cells (Invitrogen, Cat. #R758-07), stably transfected with pcDNA5/FRT-human GPR119 plus pOG44
T1 sequence (Q8TDV5 1-335): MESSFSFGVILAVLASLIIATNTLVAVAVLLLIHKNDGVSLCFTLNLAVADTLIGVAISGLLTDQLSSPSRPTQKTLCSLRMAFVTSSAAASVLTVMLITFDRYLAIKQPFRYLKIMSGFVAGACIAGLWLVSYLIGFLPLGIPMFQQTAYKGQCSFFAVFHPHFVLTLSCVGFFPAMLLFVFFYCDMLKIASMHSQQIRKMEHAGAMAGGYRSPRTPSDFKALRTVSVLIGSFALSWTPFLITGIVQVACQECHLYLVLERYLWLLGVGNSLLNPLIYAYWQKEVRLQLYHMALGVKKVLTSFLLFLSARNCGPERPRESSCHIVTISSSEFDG
Type: cell-based
Procedure: Flp-In-CHO cells (Invitrogen, Cat. #R758-07) are maintained in Ham's F12 medium supplemented with 10% fetal bovine serum, 1% antibiotic mixture and 2 mM L-glutamine. The cells are transfected with a DNA mixture containing human GPR119 in pcDNA5/FRT vector and the pOG44 vector (1:9) using Fugene6 (Roche), according to the manufacturer's instruction. After 48 h, the medium is changed to medium supplemented with 400 μg/ml hygromycin B to initiate the selection of stably transfected cells.
To test the activity of compounds of the invention, Flp-In-CHO-hGPR119 cells are harvested and resuspended in DMEM plus 3% lipid-depleted fetal bovine serum. Forth μl of cells are plated in 384 well plates at a density of 15,000 cells/well. IBMX (3-isobutyl-1-methyl-xanthine) is added to the cells to a final concentration of 1 mM, followed by the addition of 500 nl of the compound to be tested. The cells are incubated at 37° C. for 30 minutes. Equal volume (20 μl) of the HTRF reagents, anti-cAMP-Cryptate and cAMP-XL665, are added to the cells. The plates are incubated at rt for 1 h and read on a HTRF reader according to the manufacturer's instruction.
In the case of CCc1cnc(N2CCC(COc3c(F)cc(-c4ccc(Cn5ncnn5)cc4)cc3F)CC2)nc1 [Example H5], the EC50 is reported as 28 nM.
Compound CCc1cnc(N2CCC(COc3c(F)cc(-c4ccc(-n5cncn5)nc4C)cc3F)CC2)nc1 [Example F1, 2-(4-((2,6-difluoro-4-(2-methyl-6-(1H-1,2,4-triazol-1-yl)pyridin-3-yl)phenoxy)methyl)piperidin-1-yl)-5-ethylpyrimidine] has an EC50 of 0.5 nM.
CCN(CCO)C(=O)c1ncc(-c2cc(F)c(OCC3CCN(C(=O)OC4(C)CC4)CC3)c(F)c2)cn1 [Example J5] showed an EC50 of 19 nM.
For CCc1cnc(N2CCC(COc3c(F)cc(-c4ccc(S(=O)(=O)CC5(C)COC5)cc4)cc3F)CC2)nc1 [Example A3, 2-(4-((3,5-difluoro-4′-((3-methyloxetan-3-yl)methylsulfonyl)biphenyl-4-yloxy)methyl)piperidin-1-yl)-5-ethylpyrimidine], the EC50 was 0.7 nM.
Compound CCc1cnc(N2CCC(COc3c(F)cc(-c4ccc(CO)cc4)cc3F)CC2)nc1 [Example A14] has an EC50 of 5 nM.
With CCc1cnc(N2CCC(COc3c(F)cc(-c4ccc(S(C)(=O)=O)nc4)cc3F)CC2)nc1 [Example A22] the EC50 was 2 nM.
CN1CCN(C(=O)c2ncc(-c3cc(F)c(OCC4CCN(C(=O)OC5(C)CC5)CC4)c(F)c3)cn2)CC1 [Example J12] showed an EC50 of 14 nM.
With CCc1cnc(N2CCC(COc3c(F)cc(-c4ccc(Cn5ccnc5)cc4)cc3F)CC2)nc1 [Example H4] the EC50 was 92 nM.
Compound CCc1cnc(N2CCC(COc3c(F)cc(-c4ccc(-c5cnco5)cc4)cc3F)CC2)nc1 [Example G1, 5-(4′-((1-(5-ethylpyrimidin-2-yl)piperidin-4-yl)methoxy)-3′,5′-difluorobiphenyl-4-yl)oxazole] has an EC50 of 3 nM.
With CC1(OC(=O)N2CCC(COc3c(F)cc(-c4cnc(C(=O)N5CC[C@H](O)C5)nc4)cc3F)CC2)CC1 [Example J19] the EC50 was 47 nM.
In the case of CCOC(=O)CCNC(=O)c1ncc(-c2cc(F)c(OCC3CCN(C(=O)OC4(C)CC4)CC3)c(F)c2)cn1 [Example J8], the EC50 is reported as 10 nM.
CCc1cnc(N2CCC(COc3c(F)cc(-c4cnc(C(N)=O)nc4)cc3F)CC2)nc1 [Example A35] showed an EC50 of 9 nM.
CCc1cnc(N2CCC(COc3c(F)cc(-c4ccc(CN(C)C(C)=O)cc4)cc3F)CC2)nc1 [Example L1, N-((4′-((1-(5-ethylpyrimidin-2-yl)piperidin-4-yl)methoxy)-3′,5′-difluorobiphenyl-4-yl)methyl)-N-methylacetamide] showed an EC50 of 62 nM.
CCc1cnc(N2CCC(COc3c(F)cc(-c4cnn(CCN(C)C)c4)cc3F)CC2)nc1 [Example K1, 2-(4-(4-((1-(5-ethylpyrimidin-2-yl)piperidin-4-yl)methoxy)-3,5-difluorophenyl)-1H-pyrazol-1-yl)-N,N-dimethylethanamine] gave an EC50 of 2070 nM.
CCc1cnc(N2CCC(COc3c(F)cc(-c4ccc(-c5nn[nH]n5)nc4)cc3F)CC2)nc1 [Example B5] was tested, and the EC50 was 79 nM.
With CC1(OC(=O)N2CCC(COc3c(F)cc(-c4ccc(S(C)(=O)=O)cc4)cc3F)CC2)CC1 [Example D1, 1-methylcyclopropyl 4-((3,5-difluoro-4′-(methylsulfonyl)biphenyl-4-yloxy)methyl)piperidine-1-carboxylate] the EC50 was 1 nM.
CCc1cnc(N2CCC(COc3c(F)cc(-c4cccc(Cc5nnn(C)n5)c4)cc3F)CC2)nc1 [Example C5] was tested, and the EC50 was 22 nM.
Compound CCc1cnc(N2CCC(COc3c(F)cc(-c4ccc(S(C)(=O)=O)cc4)cc3F)CC2)nc1 [Example A6] has an EC50 of 0.7 nM.
For CCc1cnc(N2CCC(COc3c(F)cc(-c4ccc(S(C)(=O)=O)cn4)cc3F)CC2)nc1 [Example A1, 2-(4-((2,6-difluoro-4-(5-(methylsulfonyl)pyridin-2-yl)phenoxy)methyl)piperidin-1-yl)-5-ethylpyrimidine], the EC50 was 1 nM.
With CC1(OC(=O)N2CCC(COc3c(F)cc(-c4cnc(C(=O)N5CCC(O)CC5)nc4)cc3F)CC2)CC1 [Example J1] the EC50 was 13 nM.
Work on CCc1cnc(N2CCC(COc3c(F)cc(-c4ccc(-c5nnn(C)n5)cc4)cc3F)CC2)nc1 [Example C1, 2-(4-((3,5-difluoro-4′-(2-methyl-2H-tetrazol-5-yl)biphenyl-4-yloxy)methyl)piperidin-1-yl)-5-ethylpyrimidine] yielded an EC50 of 5 nM.
CCCS(=O)(=O)c1ccc(-c2cc(F)c(OCC3CCN(C(=O)OC4(C)CC4)CC3)c(F)c2)c(C)n1 [Example F4, 1-methylcyclopropyl 4-((2,6-difluoro-4-(2-methyl-6-(propylsulfonyl)pyridin-3-yl)phenoxy)methyl)piperidine-1-carboxylate] showed an EC50 of 0.3 nM.
Compound CC1(OC(=O)N2CCC(COc3c(F)cc(-c4cnc(C(=O)NCCCO)nc4)cc3F)CC2)CC1 [Example J15] has an EC50 of 45 nM.
Compound CC(C)(C)OC(=O)N1CCC(COc2c(F)cc(-c3cc[n+]([O-])cc3)cc2F)CC1 [Example E1, 4-(4-((1-(tert-butoxycarbonyl)piperidin-4-yl)methoxy)-3,5-difluorophenyl)pyridine 1-oxide] has an EC50 of 38 nM.
Compound CC1(OC(=O)N2CCC(COc3c(F)cc(-c4cnc5[nH]c(=O)oc5c4)cc3F)CC2)CC1 [Example J11] has an EC50 of 263 nM.
In the case of CCc1cnc(N2CCC(COc3c(F)cc(-c4cnn(C)c4)cc3F)CC2)nc1 [Example A24], the EC50 is reported as 258 nM.
For CCc1cnc(N2CCC(COc3c(F)cc(-c4cnc(N5CCCC5)nc4)cc3F)CC2)nc1 [Example A16], the EC50 was 171 nM.
With CCCS(=O)(=O)c1ccc(-c2cc(F)c(OCC3CCN(C(=O)OC(C)CC)CC3)c(F)c2)c(C)n1 (stereo not shown) [Example F6, sec-butyl 4-((2,6-difluoro-4-(2-methyl-6-(propylsulfonyl)pyridin-3-yl)phenoxy)methyl)piperidine-1-carboxylate] the EC50 was 1 nM.
CC1(OC(=O)N2CCC(COc3c(F)cc(-c4ccc(C5(N)CC5)nc4)cc3F)CC2)CC1 [Example A39] showed an EC50 of 37 nM.
Compound CCc1cnc(N2CCC(COc3c(F)cc(-c4ccc(C(C)(C)O)nc4)cc3F)CC2)nc1 [Example A38] has an EC50 of 29 nM.
Compound COc1cc(-c2cc(F)c(OCC3CCN(C(=O)OC(C)(C)C)CC3)c(F)c2)ccn1 [Example A20] has an EC50 of 46 nM.
